Laboratory results published in PMC6348443 (Journal of Medicinal Chemistry, 2018).
Where a name gives a salt, the structure may show the parent alone. Read-outs that look alike come from different tables or passages of the source.

Key:
MOR [1] = target: T1, MOR (Rattus norvegicus, UniProt P33535); experiment: competition radioligand binding, rat brain membranes, [3H]DAMGO; conditions: for Ki: rat brain membranes, read-out: opioid receptor binding Ki MOR
T1 construct: Membranes were prepared from Sprague-Dawley rat brains or guinea-pig brains according to the described procedures; tissue Labortierkunde und Laborgenetik, Medizinische Universität Wien; host or cells: Sprague-Dawley rat brain without cerebella

KOR = target: T2, KOR (Cavia porcellus, UniProt P41144); experiment: competition radioligand binding, guinea-pig brain membranes, [3H]U69,593; conditions: guinea-pig brain membranes; read-out: opioid receptor binding Ki KOR
T2 construct: Membranes were prepared from Sprague-Dawley rat brains or guinea-pig brains according to the described procedures; tissue Labortierkunde und Laborgenetik, Medizinische Universität Wien; host or cells: guinea-pig brain without cerebella

male CD1 mice = experiment: acetic acid-induced writhing assay after sc administration; assay type: in vivo, mouse; conditions: for ED50: Mus musculus, 0.5 h, read-out: ED50 (95% CI), mice, sc, inhibition of writhing 30 min after drug administration
MOR [2] = target: T3, MOR (Homo sapiens, UniProt P35372); experiment: competition radioligand binding, CHO cell membranes expressing human MOR, [3H]DAMGO
T3 construct: host or cells: CHO (CHO-hMOR)

DOR = target: T4, DOR (Homo sapiens, UniProt P41143); experiment: competition radioligand binding, CHO cell membranes expressing human DOR, [3H]diprenorphine
T4 construct: host or cells: CHO (CHO-hDOR)

Compound	Ki ratio MOR/DOR/KOR (MOR [1]; from Ki in rat (MOR, DOR) and guinea-pig (KOR) brain membranes)	DOR/MOR selectivity ratio (MOR [1]; from Ki in rat brain, for 1 from Ki of ref 44)	Ki (MOR [1])	Ki (KOR)	ED50 (male CD1 mice)	ED50 (95% CI) (male CD1 mice; mice, inhibition of writhing 30 min after drug administration)	Ki (MOR [2])	Ki (DOR)	increase in MOR binding affinity vs comparator (MOR [1]; rat brain, 17b vs 4b, 16a/b vs 7a/b, 22a/b vs 7a, 7b and 9b, 14a vs 14b)	higher antinociceptive potency than morphine (male CD1 mice; writhing assay, mice)	Ki (MOR [2]; CHO cell membranes expressing human MOR, read-out: Ki MOR)	Ki (DOR; CHO cell membranes expressing human DOR, read-out: Ki DOR)
CC[C@H](N[C@H]1CC[C@@]2(OC)[C@H]3Cc4ccc(O)c5c4[C@@]2(CCN3C)[C@H]1O5)C(=O)O [Compound 19a, (2S)-2-[(4,5α-Epoxy-3-hydroxy-14β-methoxy-17-methylmorphinan-6α-yl)amino]-2-ethylacetic Acid Dihydrochloride]	1/49/189	49	0.76 ± 0.19 nM	144 ± 7 nM	< 0.02 mg/kg	17.5 (5.13–59.6) μg/kg	0.95 ± 0.13 nM	38 ± 15.4 nM	–	–	–	–
CO[C@@]12CC[C@H](N[C@H](C(=O)N[C@@H](Cc3ccc(O)cc3)C(=O)O)C(C)C)[C@@H]3Oc4c(O)ccc5c4[C@@]31CCN(C)[C@@H]2C5 [Compound 22a, (2S)-2-[[(4,5α-Epoxy-3-hydroxy-14β-methoxy-17-methylmorphinan-6α-yl)amino]-(2S)-3-methylbutyrylamino]-3-(4-hydroxyphenyl)propionic Acid]	–	–	0.82 ± 0.13 nM	69 ± 2.5 nM	0.178 mg/kg	–	–	–	4 to 7 times	2.5 times	1.29 ± 0.13 nM	1.46 ± 0.59 nM
